Assay results from BindingDB's records for PubMed 39128361 (Xi'an Jiaotong University).
pIC50: −log10 of the molar value.

Test: Inhibition of pERK (unknown origin)

**Q.** With CC(=O)N1CCN(c2ccc(Nc3nccc(-c4sc(C(C)C)nc4-c4cccc(NS(=O)(=O)c5ccccc5)c4)n3)cn2)CC1 as the compound, how does the pIC50 read?
**A.** 8.15
